Assay [1] deals with MOLM-14 F691L cells, FLT3 ITD and FLT3 F691L. Kind of assay: Cell proliferation assay (CellTiter-Glo), MOLM-14 F691L. The conditions noted are these: Homo sapiens, 72 h, 3d-Growth, GMean. In kind it is cell-based. The procedure, abridged: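 Three-day growth at 37 °C, 5% CO2 under compound (1 μM top final, 1:3 dilutions, eight points, 0.2% DMSO), read as ATP luminescence by CellTiter-Glo for IC50. Cells: MOLM-14 with FLT3 ITD plus D835Y or F691L, and IL-3-deprived Ba/F3 transfected with FLT3 ITD/D835Y, 1×10^4 per well.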

The next assay concerns the target T1, FLT3-ITD (Homo sapiens, UniProt P36888).
T1 sequence (P36888 1-993): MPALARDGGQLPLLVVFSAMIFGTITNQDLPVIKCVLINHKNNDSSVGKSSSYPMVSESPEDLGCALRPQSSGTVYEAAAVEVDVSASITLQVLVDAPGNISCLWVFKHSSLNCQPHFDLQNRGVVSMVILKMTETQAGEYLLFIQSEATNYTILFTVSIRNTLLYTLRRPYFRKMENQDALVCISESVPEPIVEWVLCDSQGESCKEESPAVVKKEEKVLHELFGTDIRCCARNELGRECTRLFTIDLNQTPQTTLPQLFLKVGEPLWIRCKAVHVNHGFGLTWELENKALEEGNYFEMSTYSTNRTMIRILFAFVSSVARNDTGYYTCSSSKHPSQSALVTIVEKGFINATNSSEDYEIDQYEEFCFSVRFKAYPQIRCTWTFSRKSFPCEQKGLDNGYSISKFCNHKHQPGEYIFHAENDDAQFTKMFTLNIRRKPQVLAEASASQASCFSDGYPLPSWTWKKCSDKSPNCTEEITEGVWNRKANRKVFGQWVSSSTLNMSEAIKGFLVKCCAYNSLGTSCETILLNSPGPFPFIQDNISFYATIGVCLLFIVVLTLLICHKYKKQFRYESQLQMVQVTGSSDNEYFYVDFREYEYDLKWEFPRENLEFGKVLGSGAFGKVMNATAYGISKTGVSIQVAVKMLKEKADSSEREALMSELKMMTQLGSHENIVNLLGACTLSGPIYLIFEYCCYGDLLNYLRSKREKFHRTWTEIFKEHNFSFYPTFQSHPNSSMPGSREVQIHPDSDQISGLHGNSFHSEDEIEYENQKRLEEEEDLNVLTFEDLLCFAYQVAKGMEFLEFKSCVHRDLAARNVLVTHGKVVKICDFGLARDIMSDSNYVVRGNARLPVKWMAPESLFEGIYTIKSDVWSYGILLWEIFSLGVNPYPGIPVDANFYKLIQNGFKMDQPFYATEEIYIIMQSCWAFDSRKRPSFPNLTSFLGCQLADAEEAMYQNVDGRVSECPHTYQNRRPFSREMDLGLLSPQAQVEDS
Kind of assay: AlphaScreen kinase assay with recombinant enzyme, FLT3-ITD. The format is biochemical. The conditions noted are these: 8pt; read-out: FLT3_ITD 8pt: IC50. Put shortly:
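Read-out: AlphaScreen proximity signal at 580 nm (680 nm excitation), lost as peptide tyrosine phosphorylation falls. Substrate Biotin-GG(EEEEY)10EE at 30 nM; IC50 runs at 10 μM (FLT3 mutants) or 100 μM (c-KIT) final. Donor beads 20 min, then acceptor beads 60 min, room temperature.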
A general note: Bead proximity is the source of the signal in Alpha formats.

The structures appear in SMILES notation. pIC50: −log10 of the molar value.

Take `CCc1ncc(-c2cc3cc(-c4cccc(C(=O)NC(C)(C)C#N)n4)cnc3[nH]2)cn1` [Compound P-0205, N-(1-cyano-1-methyl-ethyl)-6-[2-(2-ethylpyrimidin-5-yl)-1H-pyrrolo[2,3-b]pyridin-5-yl]pyridine-2-carboxamide]: the pIC50 (in assay [1]; at FLT3-ITD) was 5.00 to 10.00 each time.

Consider `O=S(=O)(NC1CCNCC1)c1cccc(-c2cnc3[nH]c(-c4ccccc4)cc3c2)n1` [Compound P-0086, 6-(2-phenyl-1H-pyrrolo[2,3-b]pyridin-5-yl)-N-(4-piperidyl)pyridine-2-sulfonamide], for which the negative logarithm of the IC50 (pIC50) (in assay [1]; at FLT3-ITD) was 5.00 to 10.00 each time.

On to `N#CC1CCN(C(=O)c2cccc(-c3cnc4[nH]c(-c5ccc(F)cc5)cc4c3)n2)C1` (stereo not drawn) [Compound P-0116, 1-[6-[2-(4-fluorophenyl)-1H-pyrrolo[2,3-b]pyridin-5-yl]pyridine-2-carbonyl]pyrrolidine-3-carbonitrile], for which the pIC50 (in assay [1]; at FLT3-ITD) was 5.00 to 10.00 in each case.

Consider `CC(C)(C#N)NC(=O)c1cccc(-c2cnc3[nH]c(-c4ccc(F)nc4)cc3c2)n1` [Compound P-0208, N-(1-cyano-1-methyl-ethyl)-6-[2-(6-fluoro-3-pyridyl)-1H-pyrrolo[2,3-b]pyridin-5-yl]pyridine-2-carboxamide], for which the pIC50 (in assay [1]; at FLT3-ITD) was 5.00 to 10.00 each time.

Consider `CCCOc1ncc(-c2cc3cc(-c4cccc(C(=O)NC(C)(C)C#N)n4)cnc3[nH]2)cn1` [Compound P-0206, N-(1-cyano-1-methyl-ethyl)-6-[2-(2-propoxypyrimidin-5-yl)-1H-pyrrolo[2,3-b]pyridin-5-yl]pyridine-2-carboxamide], for which the pIC50 (in assay [1]; on FLT3-ITD) was 5.00 to 10.00 each time.

With `CC(C)(C#N)NC(=O)c1cccc(-c2cnc3[nH]c(C4=CCS(=O)(=O)CC4)cc3c2)n1` [Compound P-0186, N-(1-cyano-1-methyl-ethyl)-6-[2-(1,1-dioxo-3,6-dihydro-2H-thiopyran-4-yl)-1H-pyrrolo[2,3-b]pyridin-5-yl]pyridine-2-carboxamide], the pIC50 (in assay [1]; at FLT3-ITD) was 5.00 to 10.00 in each case.

Consider `CC(C)(C#N)NC(=O)c1cccc(-c2cnc3[nH]c(-c4cnn(CC(F)(F)F)c4)cc3c2)n1` [Compound P-0193, N-(1-cyano-1-methyl-ethyl)-6-[2-[1-(2,2,2-trifluoroethyl)pyrazol-4-yl]-1H-pyrrolo[2,3-b]pyridin-5-yl]pyridine-2-carboxamide], for which the pIC50 (in assay [1]; at FLT3-ITD) was 5.00 to 10.00 each time.

Consider `O=C(Nc1cccc(-c2cnc3[nH]c(-c4ccccc4)cc3c2)n1)C1CNC1` [Compound P-0084, N-[6-(2-phenyl-1H-pyrrolo[2,3-b]pyridin-5-yl)-2-pyridyl]azetidine-3-carboxamide], for which the pIC50 (in assay [1]; at FLT3-ITD) was 5.00 to 10.00 each time.

Regarding `CC(C)(C#N)NC(=O)c1cccc(-c2cnc3[nH]c(-c4cnc(C(C)(C)O)nc4)cc3c2)n1` [Compound P-0211, N-(1-cyano-1-methyl-ethyl)-6-[2-[2-(1-hydroxy-1-methyl-ethyl)pyrimidin-5-yl]-1H-pyrrolo[2,3-b]pyridin-5-yl]pyridine-2-carboxamide], the pIC50 (in assay [1]; at FLT3-ITD) was 5.00 to 10.00 in each case.

`CC(C)(C#N)NC(=O)c1cccc(-c2cnc3[nH]c(-c4cnn(C(=O)C5CC5)c4)cc3c2)n1` [Compound P-0184, N-(1-cyano-1-methyl-ethyl)-6-[2-[1-(cyclopropanecarbonyl)pyrazol-4-yl]-1H-pyrrolo[2,3-b]pyridin-5-yl]pyridine-2-carboxamide]: the pIC50 (in assay [1]; at FLT3-ITD) was 5.00 to 10.00 each time.

As to `CC(C)(C#N)NC(=O)c1cccc(-c2cnc3[nH]c(-c4cnn(C(F)F)c4)c(Cl)c3c2)n1` [Compound P-0185, 6-[3-chloro-2-[1-(difluoromethyl)pyrazol-4-yl]-1H-pyrrolo[2,3-b]pyridin-5-yl]-N-(1-cyano-1-methyl-ethyl)pyridine-2-carboxamide], the pIC50 (in assay [1]; at FLT3-ITD) was 5.00 to 10.00 in each case.

Turning to `CC(C)(C#N)NC(=O)c1cccc(-c2cnc3[nH]c(-c4ccc(C(F)(F)F)nc4)cc3c2)n1` [Compound P-0201, N-(1-cyano-1-methyl-ethyl)-6-[2-[6-(trifluoromethyl)-3-pyridyl]-1H-pyrrolo[2,3-b]pyridin-5-yl]pyridine-2-carboxamide], the pIC50 (in assay [1]; at FLT3-ITD) was 5.00 to 10.00 throughout.

For `CNC1CCN(C(=O)c2cccc(-c3cnc4[nH]c(-c5cn(C)nc5C)cc4c3)n2)C1` (stereo not drawn) [Compound P-0049, [6-[2-(1,3-dimethylpyrazol-4-yl)-1H-pyrrolo[2,3-b]pyridin-5-yl]-2-pyridyl]-[3-(methylamino)pyrrolidin-1-yl]methanone], the pIC50 (in assay [1]; on FLT3-ITD) was 5.00 to 10.00 in each case.

As to `CC(C)Oc1ccc(-c2cc3cc(-c4cccc(C(=O)NC(C)(C)C#N)n4)cnc3[nH]2)cn1` [Compound P-0190, N-(1-cyano-1-methyl-ethyl)-6-[2-(6-isopropoxy-3-pyridyl)-1H-pyrrolo[2,3-b]pyridin-5-yl]pyridine-2-carboxamide], the pIC50 (in assay [1]; on FLT3-ITD) was 5.00 to 10.00 throughout.

`CC(C)(C#N)NC(=O)c1cccc(-c2cnc3[nH]c(-c4cncnc4)cc3c2)n1` [Compound P-0195, N-(1-cyano-1-methyl-ethyl)-6-(2-pyrimidin-5-yl-1H-pyrrolo[2,3-b]pyridin-5-yl)pyridine-2-carboxamide]: the pIC50 (in assay [1]; at FLT3-ITD) was 5.00 to 10.00 in each case.

Consider `O=C(c1cccc(-c2cnc3[nH]c(-c4ccccc4)cc3c2)n1)N1CCC(NC2CC2)C1` (stereo not drawn) [Compound P-0085, [3-(cyclopropylamino)pyrrolidin-1-yl]-[6-(2-phenyl-1H-pyrrolo[2,3-b]pyridin-5-yl)-2-pyridyl]methanone], for which the negative-log IC50 (pIC50) (in assay [1]; on FLT3-ITD) was 5.00 to 10.00 in each case.

`CC(C)(C#N)NC(=O)c1cccc(-c2cnc3[nH]c(-c4cnc(C(F)(F)F)nc4)cc3c2)n1` [Compound P-0204, N-(1-cyano-1-methyl-ethyl)-6-[2-[2-(trifluoromethyl)pyrimidin-5-yl]-1H-pyrrolo[2,3-b]pyridin-5-yl]pyridine-2-carboxamide]: the pIC50 (in assay [1]; on FLT3-ITD) was 5.00 to 10.00 in each case.

Turning to `c1ccc(-c2cc3cc(-c4cccc(OC5CCNCC5)n4)cnc3[nH]2)cc1` [Compound P-0050, 2-phenyl-5-[6-(4-piperidyloxy)-2-pyridyl]-1H-pyrrolo[2,3-b]pyridine], the pIC50 (in assay [1]; at FLT3-ITD) was 5.00 to 10.00 each time.

Consider `N[C@H]1CCN(C(=O)c2ncc(-c3cnc4[nH]c(-c5ccccc5)cc4c3)s2)C1` [Compound P-0054, [(3S)-3-aminopyrrolidin-1-yl]-[5-(2-phenyl-1H-pyrrolo[2,3-b]pyridin-5-yl)thiazol-2-yl]methanone], for which the pIC50 (in assay [1]; at FLT3-ITD) was 5.00 to 10.00 in each case.

On to `CC(C)(C#N)NC(=O)c1cccc(-c2cnc3[nH]c(-c4ccc(C5(C#N)CC5)cc4)cc3c2)n1` [Compound P-0194, 6-[2-[4-(1-cyanocyclopropyl)phenyl]-1H-pyrrolo[2,3-b]pyridin-5-yl]-N-(1-cyano-1-methyl-ethyl)pyridine-2-carboxamide], for which the pIC50 (in assay [1]; at FLT3-ITD) was 5.00 to 10.00 each time.

In the case of `CCOc1ncc(-c2cc3cc(-c4cccc(C(=O)NC(C)(C)C#N)n4)cnc3[nH]2)cn1` [Compound P-0203, N-(1-cyano-1-methyl-ethyl)-6-[2-(2-ethoxypyrimidin-5-yl)-1H-pyrrolo[2,3-b]pyridin-5-yl]pyridine-2-carboxamide], the pIC50 (in assay [1]; at FLT3-ITD) was 5.00 to 10.00 in each case.

One may read the pIC50 as the IC50 on a negative log10 scale, so that one unit is a factor of ten.

For the origin of these results see patent US9938273B2 (Plexxikon Inc., priority 2015, dated 2018).
